EC50 and IC50 data for 31 molecules are collected here from patent US8703811B2, “Small molecule inhibitors of Plasmodium falciparum dihydroorotate dehydrogenase” (Genzyme Corporation, priority 2008, dated 2014).

Usually EC50 stands for the midpoint of the concentration-response curve. What is called IC50 is the concentration that gives 50% inhibition.

Structures are written as SMILES. Where two headings read alike, the source gives them in different places.

One assay concerns P. falciparum 3D7. The assay is described as follows: Inhibition of in vitro P. falciparum culture, [3H]-hypoxanthine uptake, 3D7. It counts as cell-based. The protocol:
(§1) P. falciparum strains D10, 3D7, HB3, and Dd2 were obtained from the Malaria Research and Reference Reagent Resource Center (Manassas, Va.). The parasite strains were maintained in vitro by method of Trager and Jensen. The inhibition of P. falciparum growth in the presence of drug was assessed by the relative reduction of [^3H]-hypoxanthine uptake as previously described. Inhibition data were fitted to Equation 1 using non-linear regression analysis except that the relative velocity of parasite growth was substituted for the rate of product formation.

The next assay has as its target pfDHODH (Plasmodium falciparum (isolate 3D7), UniProt Q08210). Kind of assay: DHODH chromogen reduction (DCIP) assay, pfDHODH. In kind it is biochemical, P. falciparum. The source says: (§2) Type 2 DHODH activity was monitored with either the direct assay measuring the formation of orotate or via a chromogen reduction assay using DCIP. Although the extinction coefficient and absorption wavelength are preferable for the chromogen reduction assay, the inorganic electron acceptor DCIP can be utilized by DHODH as the final electron acceptor in lieu of CoQn when the endogenous substrate is at a low concentration. As such, the direct assay was used to measure the binding affinity of pfDHODH to CoQD and L-DHO. The enzymatic reaction was performed by varying the L-DHO concentration (1-400 μM) or CoQD concentration (1-200 μM) while keeping the other substrate constant and in excess.
(§3) Substrate specificity and enzyme inhibition data was analyzed with GraphPad Prism Version 4 for Windows (GraphPad Software). Kinetic constants were calculated by non-linear regression fitting of the data to the Michaelis-Menten equation [36]. IC50 values were determined by non-linear regression fitting of the data to Equation 1: […]

The test system of the next assay is P. falciparum Dd2. Kind of assay: Inhibition of in vitro P. falciparum culture, [3H]-hypoxanthine uptake, Dd2. In kind it is cell-based. On the procedure: as §1
The next assay has as its target hsDHODH (Homo sapiens (Human), UniProt Q02127). Kind of assay: DCIP assay, hsDHODH. It counts as biochemical. The note with it: Table 2b; read-out: Hu (human DHODH) IC50.
From the text: as §2, with “excess. The formation of orotate was measured continuously at 296 nm (ε296=4.3 mM^−1 cm^−1). Inhibition of DHODH by small molecules was evaluated using the chromogen based assay with a final substrate concentration of 200 μM L-DHO, 18 μM CoQD, and 100 μM DCIP, unless otherwise noted. The reduction of DCIP was monitored at 600 nm (ε600=18.8 mM^−1 cm^−1).” for “excess.”
as §3

Setting [1] is: Plasmodium falciparum, 3D7, Table 2b, read-out: 3D7 EC50.
Setting [2] is: Table 2b, read-out: pfDHODH IC50.
Where [3] appears, read: Plasmodium falciparum, DD2, Table 2b, read-out: Dd2 EC50.

Chain of pfDHODH (Q08210 159-565 limits assumed): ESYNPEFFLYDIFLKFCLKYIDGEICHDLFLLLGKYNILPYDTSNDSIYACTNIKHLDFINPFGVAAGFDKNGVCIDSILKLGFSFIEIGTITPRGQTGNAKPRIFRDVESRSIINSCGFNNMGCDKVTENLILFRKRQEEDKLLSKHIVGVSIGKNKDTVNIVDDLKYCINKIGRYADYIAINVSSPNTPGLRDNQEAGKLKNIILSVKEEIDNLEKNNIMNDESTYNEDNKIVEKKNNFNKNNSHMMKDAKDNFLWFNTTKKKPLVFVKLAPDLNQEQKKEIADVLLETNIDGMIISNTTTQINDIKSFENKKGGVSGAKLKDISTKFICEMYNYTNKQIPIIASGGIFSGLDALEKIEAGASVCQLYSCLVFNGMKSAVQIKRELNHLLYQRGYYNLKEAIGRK
Chain of hsDHODH (Q02127 29-395 limits assumed): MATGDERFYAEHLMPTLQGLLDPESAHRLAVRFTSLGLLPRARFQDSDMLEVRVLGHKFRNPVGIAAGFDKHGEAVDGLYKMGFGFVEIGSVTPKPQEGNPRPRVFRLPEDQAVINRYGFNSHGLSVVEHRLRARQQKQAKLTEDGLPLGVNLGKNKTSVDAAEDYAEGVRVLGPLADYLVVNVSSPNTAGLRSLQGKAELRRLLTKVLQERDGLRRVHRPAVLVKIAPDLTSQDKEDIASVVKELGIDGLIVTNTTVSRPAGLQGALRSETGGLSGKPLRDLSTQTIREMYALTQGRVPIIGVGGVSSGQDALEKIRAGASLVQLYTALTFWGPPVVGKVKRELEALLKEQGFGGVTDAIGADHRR

Take `CC(C)NC(=O)c1ccc(-n2cnc3ccccc32)s1` [Compound 36]: the EC50 in the assay with P. falciparum 3D7 (setting [1]) worked out at 579 nM; in the assay with P. falciparum Dd2 (setting [3]), 812 nM. Besides, the IC50 is 684 nM on pfDHODH (setting [2]) and greater than 30000 nM on hsDHODH.
The corresponding values for `O=C(NC1CCC1)c1ccc(-n2cnc3ccccc32)s1` [Compound 38] are 408 nM, 442 nM, 418 nM and greater than 30000 nM.
The corresponding values for `COc1ccc2c(c1)nc(C)n2-c1ccc(C(=O)NC2CC2)s1` [Compound 39] are 180 nM, 247 nM, 212 nM and 24600 nM.
On to `Cc1nc2cc(Cl)ccc2n1-c1ccc(C(=O)NC2CC2)s1` [Compound 40], for which the half-maximal effective concentration (EC50) in the assay on P. falciparum 3D7 (Plasmodium falciparum, 3D7, read-out: 3D7 EC50, Table 2b) was found to be 88 nM; in the assay with P. falciparum Dd2 (Plasmodium falciparum, DD2, read-out: Dd2 EC50, Table 2b) it was 120 nM. In addition, the IC50 on pfDHODH (pfDHODH IC50, Table 2b) was 58 nM; on hsDHODH it was greater than 30000 nM.
Turning to `Cc1nc2cc(F)ccc2n1-c1ccc(C(=O)NC2CC2)s1` [Compound 42], the EC50 with P. falciparum 3D7 (Table 2b, read-out: 3D7 EC50) amounted to 104 nM; with P. falciparum Dd2 (Table 2b, read-out: Dd2 EC50), 150 nM. Further, the IC50 was 88 nM on pfDHODH (setting [2]) and greater than 30000 nM on hsDHODH.
On to `Cc1nc2cc(F)ccc2n1-c1ccc(C(=O)NC2CC2)s1` [Compound 43], for which the EC50 is 39 nM in the assay on P. falciparum 3D7 (Table 2b, read-out: 3D7 EC50) and 36 nM with P. falciparum Dd2 (Table 2b, read-out: Dd2 EC50). For the same molecule, the concentration for half-maximal inhibition (IC50) on pfDHODH (setting [2]) came out at 104 nM; at hsDHODH it was 20300 nM.
`Cc1ccc2c(c1)nc(C)n2-c1ccc(C(=O)NC2CC2)s1` [Compound 44]: the values for the 50% effective concentration (EC50) in the assay on P. falciparum 3D7 (setting [1]) and with P. falciparum Dd2 (setting [3]) were 34 nM and 48 nM, respectively. In addition, the IC50 was 56 nM at pfDHODH (setting [2]) and greater than 30000 nM on hsDHODH.
The corresponding values for `CCc1nc2ccccc2n1-c1ccc(C(=O)NC2CC2)s1` [Compound 49] are 125 nM, 185 nM, 113 nM and greater than 30000 nM.
The corresponding values for `CCCNC(=O)c1ccc(-n2c(C)nc3cc(F)ccc32)s1` [Compound 50] are 255 nM, 538 nM, 499 nM and greater than 30000 nM.
The corresponding values for `CCCNC(=O)c1ccc(-n2c(C)nc3cc(Cl)ccc32)s1` [Compound 51] are 158 nM, 314 nM, 239 nM and greater than 30000 nM.
Turning to `CCNC(=O)c1ccc(-n2c(C)nc3cc(Cl)ccc32)s1` [Compound 52], the values for the EC50 in the assay on P. falciparum 3D7 (setting [1]) and in the assay with P. falciparum Dd2 (setting [3]) were 53 nM and 104 nM, respectively. Moreover, the concentration for half-maximal inhibition (IC50) on pfDHODH (setting [2]) was 94 nM; on hsDHODH it was greater than 30000 nM.
For `CCNC(=O)c1ccc(-n2c(C)nc3cc(F)ccc32)s1` [Compound 53], the 50% effective concentration (EC50) with P. falciparum 3D7 (setting [1]) was 66 nM; in the assay with P. falciparum Dd2 (setting [3]), 106 nM. Also, the IC50 on pfDHODH (setting [2]) was 164 nM; on hsDHODH it was greater than 30000 nM.
The corresponding values for `Cc1nc2cc(OC(F)(F)F)ccc2n1-c1ccc(C(=O)NC2CC2)s1` [Compound 57] are 33 nM, 60 nM, 64 nM and greater than 30000 nM.
Turning to `Cc1nc2ccc(OC(F)(F)F)cc2n1-c1ccc(C(=O)NC2CC2)s1` [Compound 58], the values for the EC50 with P. falciparum 3D7 (setting [1]) and in the assay with P. falciparum Dd2 (setting [3]) were 9 nM and 16 nM, respectively. In addition, the results for the IC50 on pfDHODH (setting [2]) and on hsDHODH were 36 nM and greater than 30000 nM, respectively.
The corresponding values for `CCCc1nc2ccccc2n1-c1ccc(C(=O)NCC)s1` [Compound 59] are 382 nM, 467 nM, 334 nM and 19400 nM.
The matching figures for `Cc1ccc2c(c1)ncn2-c1ccc(C(=O)NC2CC2)s1` [Compound 60]: 20 nM, 21 nM, 38 nM and 24600 nM.
Take `CCNC(=O)c1ccc(-n2cnc3cc(C)ccc32)s1` [Compound 61]: the 50% effective concentration (EC50) in the assay on P. falciparum 3D7 (setting [1]) came out at 27 nM; in the assay with P. falciparum Dd2 (setting [3]) it was 39 nM. In addition, the IC50 was determined as 75 nM at pfDHODH (setting [2]) and 21200 nM on hsDHODH.
Consider `CCNC(=O)c1ccc(-n2c(C)nc3cc(C)ccc32)s1` [Compound 62], for which the half-maximal effective concentration (EC50) with P. falciparum 3D7 (setting [1]) was 89 nM; in the assay on P. falciparum Dd2 (setting [3]) it was 87 nM. Further, the IC50 on pfDHODH (setting [2]) is 112 nM; at hsDHODH, greater than 30000 nM.
As to `CCNC(=O)c1ccc(-n2c(CC)nc3ccccc32)s1` [Compound 63], the EC50 in the assay with P. falciparum 3D7 (setting [1]) amounted to 141 nM; in the assay on P. falciparum Dd2 (setting [3]), 146 nM. The IC50 is 137 nM at pfDHODH (setting [2]) and greater than 30000 nM at hsDHODH.
The corresponding values for `Cc1nc2cc(C(F)(F)F)ccc2n1-c1ccc(C(=O)NC2CC2)s1` [Compound 64] are 8 nM, 12 nM, 41 nM and 28000 nM.
The corresponding values for `Cc1cccc2c1nc(C)n2-c1ccc(C(=O)NC2CC2)s1` [Compound 65] are 9 nM, 13 nM, 42 nM and greater than 30000 nM.
As to `CCc1nc2cc(F)ccc2n1-c1ccc(C(=O)NC2CC2)s1` [Compound 66], the concentration giving a half-maximal response (EC50) was 136 nM in the assay with P. falciparum 3D7 (setting [1]) and 253 nM with P. falciparum Dd2 (setting [3]). Further, the IC50 at pfDHODH (setting [2]) is 67 nM; on hsDHODH, greater than 30000 nM.
The matching figures for `CCCc1nc2ccccc2n1-c1ccc(C(=O)NC2CC2)s1` [Compound 67]: 389 nM, 629 nM, 180 nM and 25600 nM.
For the molecule `CCNC(=O)c1ccc(-n2cnc3cc(F)ccc32)s1` [Compound 68], the half-maximal effective concentration (EC50) with P. falciparum 3D7 (setting [1]) stood at 90 nM; in the assay with P. falciparum Dd2 (setting [3]), 132 nM. Besides, the half-inhibitory concentration (IC50) on pfDHODH (setting [2]) is 105 nM; at hsDHODH it was greater than 30000 nM.
Regarding `CCNC(=O)c1ccc(-n2c(CC)nc3cc(F)ccc32)s1` [Compound 69], the concentration for a half-maximal effect (EC50) was 226 nM in the assay on P. falciparum 3D7 (setting [1]) and 361 nM with P. falciparum Dd2 (setting [3]). Further, the IC50 was 178 nM at pfDHODH (setting [2]) and greater than 30000 nM on hsDHODH.
The corresponding values for `O=C(NC1CC1)c1ccc(-n2cnc3cc(F)ccc32)s1` [Compound 70] are 62 nM, 105 nM, 58 nM and greater than 30000 nM.
`Cc1nc(-c2ccccc2)cn1-c1ccc(C(=O)NC2CC2)s1` [Compound 74]: the EC50 worked out at 124 nM with P. falciparum 3D7 (setting [1]) and 206 nM with P. falciparum Dd2 (setting [3]). The figures for the concentration for half-maximal inhibition (IC50) on pfDHODH (setting [2]) and at hsDHODH were 220 nM and greater than 30000 nM, respectively.
The corresponding values for `CCNC(=O)c1ccc(-n2cc(-c3ccccc3)nc2C)s1` [Compound 75] are 278 nM, 283 nM, 416 nM and greater than 30000 nM.
The corresponding values for `Cc1nc(-c2ccc(F)cc2)cn1-c1ccc(C(=O)NC2CC2)s1` [Compound 76] are 226 nM, 217 nM, 240 nM and greater than 30000 nM.
On to `CCCCC(=O)c1ccc(-n2cnc3ccccc32)s1` [Compound 84, 1-[5-(1H-benzimidazol-1-yl)-2-thienyl]pentan-1-one], for which the EC50 was greater than 40000 nM with P. falciparum 3D7 (setting [1]) and 20000 nM in the assay on P. falciparum Dd2 (setting [3]). For the same molecule, the IC50 on pfDHODH (setting [2]) and on hsDHODH was greater than 30000 nM in each case.
As to `Cc1nc2cc3c(cc2n1-c1ccc(C(=O)NC2CC2)s1)OCO3` [Compound 90], the EC50 with P. falciparum 3D7 (setting [1]) amounted to 220 nM; in the assay on P. falciparum Dd2 (setting [3]) it was 174 nM. For the same molecule, the figures for the IC50 on pfDHODH (setting [2]) and on hsDHODH were 116 nM and greater than 30000 nM, respectively.
